{"source": "patent US20090197880A1", "about": "(Genelabs Technologies, Inc., priority 2007, published 2009)"}
{"assay": "HCV replicon assay (luciferase) in ET (Huh-lucubineo-ET) cell line", "assay_type": "cell-based", "settings": "Hepatitis C virus; tested at 10 μM; inhibition of replication relative to no compound control; ET replicon cells, luciferase 48-72 hours; read-out: % inhition at 10 μM", "excerpt": "A cell line, ET (Huh-lucubineo-ET) was used for screening of compounds, or pharmaceutically acceptable salts or solvates, described herein for inhibition of HCV RNA dependent RNA polymerase. The ET cell line was stably transfected with RNA transcripts harboring a I389luc-ubi-neo/NS3-3′/ET; replicon with firefly luciferase-ubiquitin-neomycin phosphotransferase fusion protein and EMCV-IRES driven NS3-5B polyprotein containing the cell culture adaptive mutations (E1202G; T1280I; K1846T) (Krieger at al, 2001 and unpublished). The ET cells were grown in DMEM, supplemented with 10% fetal calf serum, 2 mM Glutamine, Penicillin (100 IU/mL)/Streptomycin (100 μg/mL), 1× nonessential amino acids, and 250 μg/mL G418 (“Geneticin”). They were all available through Life Technologies (Bethesda, Md.). The cells were plated at 0.5−1.0×10^4 cells/well in the 96 well plates and incubated for 24 hrs before adding the test compounds. […] Luciferase activity was measured 48-72 hours later by adding a lysis buffer and the substrate (Catalog number Glo-lysis buffer E2661 and Bright-Glo luciferase system E2620 Promega, Madison, Wis.). Cells should not be too confluent during the assay. Percent inhibition of replication was plotted relative to no compound control. Under the same condition, cytotoxicity of the compounds was determined using cell proliferation reagent, WST-1 (Roche, Germany). The compounds showing antiviral activities, but no significant cytotoxicities were chosen to determine the EC50 and TC50, the effective concentration and toxic concentration at which 50% of the maximum inhibition is observed. For these determinations, 6 dilutions of each compound were used. Compounds were typically diluted 3 fold to span a concentration range of 250 fold. EC50 and similarly TC50 values were calculated by fitting % inhibition at each concentration to the following equation:\n% inhibition=100%/[(EC50/[I])^b+1]\nwhere b is Hill's coefficient.", "units": {"inhibition at 10 µM": "%"}}
{"smiles": "CCCOc1ccc(-c2cc(Cn3cc4nc(-c5ccc(OC)cc5)nc-4cn3)on2)cc1", "note": "[Compound 138, 2-(4-Methoxy-phenyl)-5-[3-(4-propoxy-phenyl)-isoxazol-5-ylmethyl]-5H-imidazo[4,5-d]pyridazine]", "inhibition at 10 µM": 48.8}
{"smiles": "FC(F)(F)c1ccc(-c2cc(Cn3cc4nc(-c5ccc6[nH]ccc6c5)nc-4cn3)on2)c(C(F)(F)F)c1", "note": "[Compound 139, 5-[3-(2,4-Bis-trifluoromethyl-phenyl)-isoxazol-5-ylmethyl]-2-(1H-indol-5-yl)-5H-imidazo[4,5-d]pyridazine]", "inhibition at 10 µM": 51.1}
{"smiles": "Fc1cccc(F)c1-c1nc2cnn(Cc3cc(-c4ccc(C(F)(F)F)cc4C(F)(F)F)no3)cc-2n1", "note": "[Compound 140, 5-[3-(2,4-Bis-trifluoromethyl-phenyl)-isoxazol-5-ylmethyl]-2-(2,6-difluoro-phenyl)-5H-imidazo[4,5-d]pyridazine]", "inhibition at 10 µM": 82.7}
{"smiles": "FC(F)(F)c1ccc(-c2cc(Cn3cc4nc(-c5ccco5)nc-4cn3)on2)c(C(F)(F)F)c1", "note": "[Compound 142, 5-[3-(2,4-Bis-trifluoromethyl-phenyl)-isoxazol-5-ylmethyl]-2-furan-2-yl-5H-imidazo[4,5-d]pyridazine]", "inhibition at 10 µM": 66.3}
{"smiles": "FC(F)(F)c1ccc(-c2cc(Cn3cc4nc(-c5cccs5)nc-4cn3)on2)c(C(F)(F)F)c1", "note": "[Compound 143, 5-[3-(2,4-Bis-trifluoromethyl-phenyl)-isoxazol-5-ylmethyl]-2-thiophen-2-yl-5H-imidazo[4,5-d]pyridazine]", "inhibition at 10 µM": 96.1}
{"smiles": "CCCOc1ccc(-c2cc(Cn3cc4nc(-c5ccco5)nc-4cn3)on2)cc1", "note": "[Compound 144, 2-Furan-2-yl-5-[3-(4-propoxy-phenyl)-isoxazol-5-ylmethyl]-5H-imidazo[4,5-d]pyridazine]", "inhibition at 10 µM": 92.2}
{"smiles": "CCCOc1ccc(-c2cc(Cn3cc4nc(-c5ccc(F)cc5)nc-4cn3)on2)cc1", "note": "[Compound 145, 2-(4-Fluoro-phenyl)-5-[3-(4-propoxy-phenyl)-isoxazol-5-ylmethyl]-5H-imidazo[4,5-d]pyridazine]", "inhibition at 10 µM": 85.6}
{"smiles": "Fc1cccc(-c2nc3cnn(Cc4cc(-c5ccc(OCc6ccncc6)cc5)no4)cc-3n2)c1F", "note": "[Compound 148, 2-(2,3-Difluoro-phenyl)-5-{3-[4-(pyridin-4-ylmethoxy)-phenyl]-isoxazol-5-ylmethyl}-H-imidazo[4,5-d]pyridazine]", "inhibition at 10 µM": 100}
{"smiles": "Cc1nc(C)c(-c2cc(Cn3cc4nc(-c5cccc(F)c5F)nc-4cn3)on2)s1", "note": "[Compound 149, 2-(2,3-Difluoro-phenyl)-5-[3-(2,4-dimethyl-thiazol-5-yl)-isoxazol-5-ylmethyl]-5H-imidazo[4,5-d]pyridazine]", "inhibition at 10 µM": 43.7}
{"smiles": "Fc1cccc(-c2nc3cnn(Cc4cc(-c5ccc(CN6CCCCC6)cc5)no4)cc-3n2)c1F", "note": "[Compound 157, 2-(2,3-Difluoro-phenyl)-5-[3-(4-piperidin-1-ylmethyl-phenyl)-isoxazol-5-ylmethyl]-5H-imidazo[4,5-d]pyridazine]", "inhibition at 10 µM": 9.99}
{"smiles": "Fc1cccc(-c2nc3cnn(Cc4cc(-c5ccc(OCCN6CCCC6)cc5)no4)cc-3n2)c1F", "note": "[Compound 158, 2-(2,3-Difluoro-phenyl)-5-{3-[4-(2-pyrrolidin-1-yl-ethoxy)-phenyl]-isoxazol-5-ylmethyl}-5H-imidazo[4,5-d]pyridazine]", "inhibition at 10 µM": 27.9}
{"smiles": "O=C(O)c1cccc(COc2ccc(-c3cc(Cn4cc5nc(-c6cccc(F)c6F)nc-5cn4)on3)cc2)c1", "note": "[Compound 159, 3-(4-{5-[2-(2,3-Difluoro-phenyl)-imidazo[4,5-d]pyridazin-5-ylmethyl]-isoxazol-3-yl}-phenoxymethyl)-benzoic Acid]", "inhibition at 10 µM": 49.4}
{"smiles": "Fc1ccc(-c2cc(Cn3cc4nc(-c5cccc(F)c5F)nc-4cn3)on2)c(OC(F)(F)F)c1", "note": "[Compound 160, 2-(2,3-Difluoro-phenyl)-5-[3-(4-fluoro-2-trifluoromethoxy-phenyl)-isoxazol-5-ylmethyl]-5H-imidazo[4,5-d]pyridazine]", "inhibition at 10 µM": 61.5}
{"smiles": "CN(C)CCOc1ccc(-c2cc(Cn3cc4nc(-c5cccc(F)c5F)nc-4cn3)on2)cc1", "note": "[Compound 161, [2-(4-{5-[2-(2,3-Difluoro-phenyl)-imidazo[4,5-d]pyridazin-5-ylmethyl]-isoxazol-3-yl}-phenoxy)-ethyl]-dimethyl-amine]", "inhibition at 10 µM": 54.6}
{"smiles": "O=C(O)c1ccc(COc2ccc(-c3cc(Cn4cc5nc(-c6cccc(F)c6F)nc-5cn4)on3)cc2)cc1", "note": "[Compound 162, 4-(4-{5-[2-(2,3-Difluoro-phenyl)-imidazo[4,5-d]pyridazin-5-ylmethyl]-isoxazol-3-yl}-phenoxymethyl)-benzoic Acid]", "inhibition at 10 µM": 66.9}
{"smiles": "COc1cc(-c2cc(Cn3cc4nc(-c5cccc(F)c5F)nc-4cn3)on2)ccc1OC(F)F", "note": "[Compound 163, 5-[3-(4-Difluoromethoxy-3-methoxy-phenyl)-isoxazol-5-ylmethyl]-2-(2,3-difluoro-phenyl)-5H-imidazo[4,5-d]pyridazine]", "inhibition at 10 µM": 62}
{"smiles": "Fc1cccc(-c2nc3cnn(Cc4cc(-c5cc(C(F)(F)F)cc(C(F)(F)F)c5)no4)cc-3n2)c1F", "note": "[Compound 164, 5-[3-(3,5-Bis-trifluoromethyl-phenyl)-isoxazol-5-ylmethyl]-2-(2,3-difluoro-phenyl)-5H-imidazo[4,5-d]pyridazine]", "inhibition at 10 µM": 90.1}
{"smiles": "Fc1cccc(-c2nc3cnn(Cc4cc(-c5ccc(OC(F)(F)F)c(Cl)c5)no4)cc-3n2)c1F", "note": "[Compound 165, 5-[3-(3-Chloro-4-trifluoromethoxy-phenyl)-isoxazol-5-ylmethyl]-2-(2,3-difluoro-phenyl)-5H-imidazo[4,5-d]pyridazine]", "inhibition at 10 µM": 79.4}
{"smiles": "COc1ccc(-c2cc(Cn3cc4nc(-c5cccc(F)c5F)nc-4cn3)on2)c(O)c1", "note": "[Compound 166, 2-{5-[2-(2,3-Difluoro-phenyl)-imidazo[4,5-d]pyridazin-5-ylmethyl]-isoxazol-3-yl}-5-methoxy-phenol]", "inhibition at 10 µM": 70.7}
{"smiles": "Fc1cccc(-c2nc3cnn(Cc4cc(-c5ccc6c(c5)OC(F)(F)O6)no4)cc-3n2)c1F", "note": "[Compound 167, 5-[3-(2,2-Difluoro-benzo[1,3]dioxol-5-yl)-isoxazol-5-ylmethyl]-2-(2,3-difluoro-phenyl)-5H-imidazo[4,5-d]pyridazine]", "inhibition at 10 µM": 93.1}
{"smiles": "Fc1cc(-c2cc(Cn3cc4nc(-c5cccc(F)c5F)nc-4cn3)on2)ccc1OC(F)(F)F", "note": "[Compound 168, 2-(2,3-Difluoro-phenyl)-5-[3-(3-fluoro-4-trifluoromethoxy-phenyl)-isoxazol-5-ylmethyl]-5H-imidazo[4,5-d]pyridazine]", "inhibition at 10 µM": 99.2}
{"smiles": "Fc1cccc(-c2nc3cnn(Cc4cc(-c5ccc(OC(F)F)cc5OC(F)F)no4)cc-3n2)c1F", "note": "[Compound 169, 5-[3-(2,4-Bis-difluoromethoxy-phenyl)-isoxazol-5-ylmethyl]-2-(2,3-difluoro-phenyl)-5H-imidazo[4,5-d]pyridazine]", "inhibition at 10 µM": 83.6}
{"smiles": "Fc1cccc(-c2nc3cnn(Cc4cc(-c5ccc(OC(F)(F)C(F)C(F)(F)F)cc5)no4)cc-3n2)c1F", "note": "(centres unmarked) [Compound 170, 2-(2,3-Difluoro-phenyl)-5-{3-[4-(1,1,2,3,3,3-hexafluoro-propoxy)-phenyl]-isoxazol-5-ylmethyl}-5H-imidazo[4,5-d]pyridazine]", "inhibition at 10 µM": 97.9}
{"smiles": "COc1ccc(-c2cc(Cn3cc4nc(-c5cccc(F)c5F)nc-4cn3)on2)c(C)c1", "note": "[Compound 171, 2-(2,3-Difluoro-phenyl)-5-[3-(4-methoxy-2-methyl-phenyl)-isoxazol-5-ylmethyl]-5H-imidazo[4,5-d]pyridazine]", "inhibition at 10 µM": 91.5}
{"smiles": "Fc1cccc(-c2nc3cnn(Cc4cc(-c5ccc(OCc6ccccn6)cc5)no4)cc-3n2)c1F", "note": "[Compound 172, 2-(2,3-Difluoro-phenyl)-5-{3-[4-(pyridin-2-ylmethoxy)-phenyl]-isoxazol-5-ylmethyl}-5H-imidazo[4,5-d]pyridazine]", "inhibition at 10 µM": 95.4}
{"smiles": "Fc1cccc(-c2nc3cnn(Cc4cc(-c5ccc(OCc6ccccc6)cc5)no4)cc-3n2)c1F", "note": "[Compound 173, 5-[3-(4-Benzyloxy-phenyl)-isoxazol-5-ylmethyl]-2-(2,3-difluoro-phenyl)-5H-imidazo[4,5-d]pyridazine]", "inhibition at 10 µM": 98.7}
{"smiles": "COc1ccc(-c2cc(Cn3cc4nc(-c5cccc(F)c5F)nc-4cn3)on2)c(C(F)(F)F)c1", "note": "[Compound 174, 2-(2,3-Difluoro-phenyl)-5-[3-(4-methoxy-2-trifluoromethyl-phenyl)-isoxazol-5-ylmethyl]-5H-imidazo[4,5-d]pyridazine]", "inhibition at 10 µM": 99.7}
{"smiles": "Fc1cccc(-c2nc3cnn(Cc4cc(-c5ccc(OC(F)(F)C(F)F)cc5)no4)cc-3n2)c1F", "note": "[Compound 175, 2-(2,3-Difluoro-phenyl)-5-{3-[4-(1,1,2,2-tetrafluoro-ethoxy)-phenyl]-isoxazol-5-ylmethyl}-5H-imidazo[4,5-d]pyridazine]", "inhibition at 10 µM": 99.8}
{"smiles": "Fc1cccc(-c2nc3cnn(Cc4cc(-c5ccc(OC(F)F)cc5)no4)cc-3n2)c1F", "note": "[Compound 176, 5-[3-(4-Difluoromethoxy-phenyl)-isoxazol-5-ylmethyl]-2-(2,3-difluoro-phenyl)-5H-imidazo[4,5-d]pyridazine]", "inhibition at 10 µM": 99.8}
